Values after ≈ are worked out from the molar mass of the structure shown.
Tests used:
[1] = test system: Arizona 6.211; experiment: M.I.C. in vitro, nutrient agar dilution; format: cell-based; details: 18 h; Table III; Arizona 6.211; read-out: M.I.C.
Method: (§1) After sterilisation at 120° C., the pH was 6.8.
(§2) The minimum inhibitory concentrations (M.I.C.) were determined by dilution of the test compounds in this mixture, the concentration ranging from 0.05 to 100 μg/cm^3 in a geometric progression with a factor of 2.
(§3) The inoculation of the dishes was carried out by means of a multiple inoculator with 10^-3 dilutions of 18 hour old broth cultures.
(§4) The dishes were placed in an oven at 37° C. and the readings were taken afer an incubation time of 18 hours. The M.I.C. was taken as the lowest concentration which inhibited a culture.

[2] = test system: B. subtilis; experiment: M.I.C. in vitro, nutrient agar dilution; format: cell-based; details: Bacillus subtilis, 18 h; Table III; B. Subtilis; read-out: M.I.C.
Method: as §1, §2, §3, §4

[3] = test system: Bord. bronchis. 4.617; experiment: M.I.C. in vitro, nutrient agar dilution; format: cell-based; details: 18 h; Table III; Bord. bronchis. 4.617; read-out: M.I.C.
Method: as §1, §2, §3, §4

[4] = test system: Esch. coli 111 B4; experiment: M.I.C. in vitro, nutrient agar dilution; format: cell-based; details: Escherichia coli, 18 h; Table III; Esch. coli 111 B4
Method: as §1, §2, §3, §4

[5] = test system: Esch. coli 54.127 O.M.S.; experiment: M.I.C. in vitro, nutrient agar dilution; format: cell-based; details: Escherichia coli, 18 h; Table III; Esch. coli 54.127 O.M.S.; read-out: M.I.C.
Method: as §1, §2, §3, §4

[6] = test system: Esch. coli 95 I.S.M.; experiment: M.I.C. in vitro, nutrient agar dilution; format: cell-based; details: Escherichia coli, 18 h; Table III; Esch. coli 95 I.S.M.; read-out: M.I.C.
Method: as §1, §2, §3, §4

[7] = test system: Klebs. pneum. 10.031; experiment: M.I.C. in vitro, nutrient agar dilution; format: cell-based; details: 18 h; Table III; Klebs. pneum. 10.031; read-out: M.I.C.
Method: as §1, §2, §3, §4

[8] = test system: Pr. mirabilis Nig; experiment: M.I.C. in vitro, nutrient agar dilution; format: cell-based; details: Proteus mirabilis, 18 h; Table III; Pr. mirabilis Nig; read-out: M.I.C.
Method: as §1, §2, §3, §4

[9] = test system: Pr. morganii A.236; experiment: M.I.C. in vitro, nutrient agar dilution; format: cell-based; details: Morganella morganii, 18 h; Table III; Pr. morganii A. 236; read-out: M.I.C.
Method: as §1, §2, §3, §4

[10] = test system: Pr. vulgaris 12-53; experiment: M.I.C. in vitro, nutrient agar dilution; format: cell-based; details: Proteus vulgaris, 1253, 18 h; Table III; Pr. vulgaris 12-53; read-out: M.I.C.
Method: as §1, §2, §3, §4

[11] = test system: Providentia 0223; experiment: M.I.C. in vitro, nutrient agar dilution; format: cell-based; details: 18 h; Table III; Providentia 0223; read-out: M.I.C.
Method: as §1, §2, §3, §4

[12] = test system: Ps. aeruginosa 72.345; experiment: M.I.C. in vitro, nutrient agar dilution; format: cell-based; details: Pseudomonas aeruginosa, 18 h; Table III; Pd. aeruginosa 72.345; read-out: M.I.C.
Method: as §1, §2, §3, §4

[13] = test system: Ps. aeruginosa A.22; experiment: M.I.C. in vitro, nutrient agar dilution; format: cell-based; details: Pseudomonas aeruginosa, 18 h; Table III; Ps. aeruginosa A.22; read-out: M.I.C.
Method: as §1, §2, §3, §4

[14] = test system: S. enteritidis Danysz; experiment: M.I.C. in vitro, nutrient agar dilution; format: cell-based; details: Salmonella enterica, 18 h; Table III; S. enteritidis Danysz; read-out: M.I.C.
Method: as §1, §2, §3, §4

[15] = test system: S. oranienburg 1066; experiment: M.I.C. in vitro, nutrient agar dilution; format: cell-based; details: Salmonella enterica, 18 h; Table III; S. oranienburg 1066; read-out: M.I.C.
Method: as §1, §2, §3, §4

[16] = test system: Serratia; experiment: M.I.C. in vitro, nutrient agar dilution; format: cell-based; details: 18 h, Table III, read-out: M.I.C.
Method: as §1, §2, §3, §4

[17] = test system: Sh. sonnei I.P.S.; experiment: M.I.C. in vitro, nutrient agar dilution; format: cell-based; details: Shigella sonnei, 18 h
Method: as §1, §2, §3, §4

[18] = test system: Staph. 209 P; experiment: M.I.C. in vitro, nutrient agar dilution; format: cell-based; details: 18 h; Table III; Staph. 209 P; read-out: M.I.C.
Method: as §1, §2, §3, §4

[19] = test system: Staph. 9.144; experiment: M.I.C. in vitro, nutrient agar dilution; format: cell-based; details: 18 h; Table III; Staph. 9.144; read-out: M.I.C.
Method: as §1, §2, §3, §4

[20] = test system: Strepto A 561; experiment: M.I.C. in vitro, nutrient agar dilution; format: cell-based; details: 18 h; Table III; Strepto A 561
Method: as §1, §2, §3, §4

[21] = test system: Strepto D.M. 19; experiment: M.I.C. in vitro, nutrient agar dilution; format: cell-based; details: 18 h; Table III; Strepto D.M. 19; read-out: M.I.C.
Method: as §1, §2, §3, §4

[22] = test system: Salm. typhi 0901; experiment: microbe, parasite or virus in culture; format: cell-based; details: Salmonella enterica, 18 h; Table III; Salm. typhi 0901
Method: as §1, §2, §3, §4

[23] = test system: Escherichia coli P 5101; experiment: Systemic infection in mice; format: in vivo; details: P5101, po, 168 h, mice, p.o. at infection and 6 hours later, E. coli P 5101, 7 days
Method: (§5) The activity of the compounds according to the invention against systemic infections in mice, caused by Staphylococcus 50,774, Streptococcus pyogenes A 65, Pseudomonas aeruginosa No. 12 and Escherichia coli P 5101, has been studied.
(§6) The infections were set up by intraperitoneal injection of a suspension of the bacterial culture corresponding to the germ studied. The products were administered orally at the time of injection, and 6 hours later. […] Aureus and for 7 days for the other germs.
(§7) Oxolinic acid was used as the reference substance.

[24] = test system: Pseudomonas aeruginosa No. 12; experiment: Systemic infection in mice; format: in vivo; details: po, 168 h, mice, p.o. at infection and 6 hours later, P. aeruginosa No. 12, 7 days
Method: as §5, §6, §7

[25] = test system: Staph. aureus 50,774; experiment: Systemic infection in mice; format: in vivo; details: Staphylococcus aureus, po, 336 h, mice, p.o. at infection and 6 hours later, Staph. aureus 50,774, 14 days
Method: as §5, §6, §7

[26] = test system: Strept. pyogenes A. 65; experiment: Systemic infection in mice; format: in vivo; details: Streptococcus pyogenes, po, 168 h, mice, p.o. at infection and 6 hours later, Strept. pyogenes A. 65, 7 days
Method: as §5, §6, §7

[27] = test system: Escherichia coli P 5101; experiment: M.I.C. for germ used in experimental infection; format: cell-based; details: P5101, 18 h, Table 4, E. coli P 5101, read-out: M.I.C.
Method: as §1, §2, §3, §4

[28] = test system: Pseudomonas aeruginosa No. 12; experiment: M.I.C. for germ used in experimental infection; format: cell-based; details: 18 h, Table 4, P. aeruginosa No. 12, read-out: M.I.C.
Method: as §1, §2, §3, §4

[29] = test system: Staph. aureus 50,774; experiment: M.I.C. for germ used in experimental infection; format: cell-based; details: Staphylococcus aureus, 18 h; Table 4; Staph. aureus 50,774; read-out: M.I.C.
Method: as §1, §2, §3, §4

[30] = test system: Strept. pyogenes A. 65; experiment: M.I.C. for germ used in experimental infection; format: cell-based; details: Streptococcus pyogenes, 18 h; Table 4; Strept. pyogenes A. 65; read-out: M.I.C.
Method: as §1, §2, §3, §4

SMILES: CCn1cc(C(=O)O)c(=O)c2cc(F)c(N3CCNCC3)cc21 [Example 22, 1-Ethyl-6-fluoro-4-oxo-7-piperazinyl-1,4-dihydro-quinoline-3-carboxylic acid]
- MIC [1]: 0.2 µg/mL (≈ 0.626 µM)
- MIC [2]: 0.2 µg/mL (≈ 0.626 µM)
- MIC [3]: 6.25 to 12.5 µg/mL (≈ 19.6 to 39.1 µM)
- MIC [4]: 0.1 to 0.2 µg/mL (≈ 0.313 to 0.626 µM)
- MIC [5]: 0.2 µg/mL (≈ 0.626 µM)
- MIC [6]: 0.2 µg/mL (≈ 0.626 µM)
- MIC [7]: 0.1 to 0.2 µg/mL (≈ 0.313 to 0.626 µM)
- MIC [8]: 0.1 to 0.2 µg/mL (≈ 0.313 to 0.626 µM)
- MIC [9]: 0.05 µg/mL (≈ 0.157 µM)
- MIC [10]: 0.05 µg/mL (≈ 0.157 µM)
- MIC [11]: 0.8 to 1.6 µg/mL (≈ 2.51 to 5.01 µM)
- MIC [12]: 0.4 to 0.8 µg/mL (≈ 1.25 to 2.51 µM)
- MIC [13]: 0.4 to 0.8 µg/mL (≈ 1.25 to 2.51 µM)
- MIC [14]: 0.2 µg/mL (≈ 0.626 µM)
- MIC [15]: 6.2 µg/mL (≈ 19.4 µM)
- MIC [16]: 1 to 6.2 µg/mL (≈ 3.13 to 19.4 µM)
- MIC [17]: 0.01 to 0.02 µg/mL (≈ 0.0313 to 0.0626 µM)
- MIC [18]: 0.2 to 0.4 µg/mL (≈ 0.626 to 1.25 µM)
- MIC [19]: 0.2 to 0.4 µg/mL (≈ 0.626 to 1.25 µM)
- MIC [20]: 50 µg/mL (≈ 157 µM)
- MIC [21]: 1.6 to 3.1 µg/mL (≈ 5.01 to 9.71 µM)
- MIC [22]: 0.05 to 0.2 µg/mL (≈ 0.157 to 0.626 µM)
- ED50 ([23]; read-out: ED50): 4 mg/kg
- ED90 ([23]; read-out: ED90): 10.4 mg/kg
- ED50 ([24]; read-out: ED50): 17.7 mg/kg
- ED90 ([24]; read-out: ED90): 25.9 mg/kg
- ED50 ([25]; read-out: ED50): 20.6 mg/kg
- ED90 ([25]; read-out: ED90): 44.1 mg/kg
- ED50 ([26]; read-out: ED50): > 100 mg/kg
- ED90 ([26]; read-out: ED90): > 100 mg/kg
- MIC [27]: 0.1 µg/mL (≈ 0.313 µM)
- MIC [28]: 0.78 µg/mL (≈ 2.44 µM)
- MIC [29]: 0.78 µg/mL (≈ 2.44 µM)
- MIC [30]: 1.56 µg/mL (≈ 4.89 µM)

From patent US4292317A, “1,4-Dihydro-quinoline-3-carboxylic acid derivatives, process for their preparation and compositions containing them” (Laboratorie Roger Bellon, priority 1977, dated 1981)
